Experimental data published in ChEMBL document CHEMBL1129204, “Synthesis of ribofuranosyl glycosides of echiguanines A and B, inhibitors of phosphatidylinositol 4-kinase” (Bioorg Med Chem Lett, 1996).
≈ marks a conversion by molar mass, not a printed value.

Experiments:
[1] = target: T1, Phosphatidylinositol 4-kinase, PI4K (Homo sapiens, UniProt Q9BTU6+Q8TCG2+Q9UBF8+P42356); experiment: Inhibition of phosphatidylinositol 4-kinase at 100 ug/ml (weak inhibition); assay type: protein assay
[2] = target: T1, Phosphatidylinositol 4-kinase, PI4K; experiment: Inhibition of phosphatidylinositol 4-kinase; assay type: protein assay

Compound | IC50 [1] | IC50 [2]
N=C(N)CCNC(=O)c1cn(C2O[C@H](CO)C(O)[C@H]2O)c2nc(N)nc(O)c12 (single isomer, unassigned) | weak inhibition | 
N=C(N)CCNC(=O)c1c[nH]c2nc(N)nc(O)c12 [ECHIGUANINE A] |  | 0.03 µg/mL (≈ 0.114 µM)
